Source: PMC10687071 (The Journal of Biological Chemistry, 2023)
Changes are numbered by the printed parent chain.

Columns and labels:
[1] = target: T1, Y71G mutant EAG1 channels (Mus musculus, UniProt Q60603, Y71G); experiment: TEVC recording, imipramine inhibition, Y71G mutant; assay type: cell-based; details: Y71G mutant EAG1 channel, +50 mV
T1 construct: expressed in transfected cells; host or cells: Xenopus laevis oocytes injected with cRNA
T1 sequence (Q60603 1-989 Y71G): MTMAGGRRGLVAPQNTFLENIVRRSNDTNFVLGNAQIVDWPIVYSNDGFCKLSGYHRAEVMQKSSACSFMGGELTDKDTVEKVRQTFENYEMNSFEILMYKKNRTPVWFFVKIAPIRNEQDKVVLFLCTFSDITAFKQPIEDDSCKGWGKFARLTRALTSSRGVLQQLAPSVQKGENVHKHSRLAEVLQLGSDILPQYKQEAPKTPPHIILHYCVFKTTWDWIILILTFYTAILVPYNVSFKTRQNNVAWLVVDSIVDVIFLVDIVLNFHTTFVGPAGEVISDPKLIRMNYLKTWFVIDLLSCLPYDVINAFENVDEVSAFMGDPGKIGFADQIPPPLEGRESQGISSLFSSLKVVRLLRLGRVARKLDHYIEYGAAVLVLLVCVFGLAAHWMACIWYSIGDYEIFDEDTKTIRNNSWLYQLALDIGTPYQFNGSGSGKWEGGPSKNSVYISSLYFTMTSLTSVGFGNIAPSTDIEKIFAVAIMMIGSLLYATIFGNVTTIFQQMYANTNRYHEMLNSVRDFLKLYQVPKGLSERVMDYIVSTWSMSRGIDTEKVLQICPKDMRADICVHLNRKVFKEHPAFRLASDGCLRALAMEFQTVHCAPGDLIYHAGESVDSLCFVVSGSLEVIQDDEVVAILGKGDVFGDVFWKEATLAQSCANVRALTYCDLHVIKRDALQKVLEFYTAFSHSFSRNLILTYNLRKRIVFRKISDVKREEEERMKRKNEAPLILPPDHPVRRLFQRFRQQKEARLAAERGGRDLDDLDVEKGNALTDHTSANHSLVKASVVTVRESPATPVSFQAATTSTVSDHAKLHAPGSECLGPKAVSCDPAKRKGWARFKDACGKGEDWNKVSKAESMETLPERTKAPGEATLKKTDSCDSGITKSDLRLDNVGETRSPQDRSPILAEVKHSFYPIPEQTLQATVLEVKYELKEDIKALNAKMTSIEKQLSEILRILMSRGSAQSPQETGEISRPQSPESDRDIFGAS
Excerpt: (§1) The cDNA encoding wild-type (WT) mouse EAG1 channels in pGH19 vector was kindly provided by G. Robertson (University of Wisconsin-Madison, Madison, WI). The mutant ΔPAS EAG1 channel in pGH19 with the deletion of the PAS domain residues 2 to 130 was generated by Bio Basic Inc and verified by DNA sequencing (Genewiz). Mutant EAG1 channels with single amino acid substitutions were generated by Genewiz and verified by DNA sequencing. cRNA was transcribed using the T7 mMessage mMachine kit (Thermo Fisher Scientific). Defolliculated Xenopus laevis oocytes were purchased from Ecocyte Bioscience or Xenopus1 and injected with the cRNA using a Nanoinject II oocyte injector (Drummond).
(§2) For EAG1 current recordings, oocytes were placed into a handmade chamber containing a bath solution for the current recording. The currents were recorded using a TEVC technique with OC-725C amplifier (Warner Instruments) and pClamp11 software (Molecular Devices). The signals were digitized using Digidata 1550 (Molecular Devices). Patch pipettes were pulled from borosilicate glass and had resistances of 0.7 to 1.5 MΩ. The recording (bath) solution contained 96 mM NaCl, 4 mM KCl, 0.1 mM CaCl2, 1.8 mM MgCl2, and 5 mM HEPES, pH 7.5. The pipette solution contained 3 M KCl. […]

[2] = target: T2, Y71V mutant EAG1 channels (Mus musculus, UniProt Q60603, Y71V); experiment: TEVC recording, imipramine inhibition, Y71V mutant; assay type: cell-based; details: Y71V mutant EAG1 channel, +50 mV
T2 construct: expressed in transfected cells; host or cells: Xenopus laevis oocytes injected with cRNA
T2 sequence (Q60603 1-989 Y71V): T1 sequence (Q60603 1-989 Y71G) with G71V
Excerpt: as §1, §2

Molecule CN(C)CCCN1c2ccccc2CCc2ccccc21 [imipramine] has an IC50 [1] of 26.7 ± 3.2 µM and an IC50 [2] of 31.3 ± 1.8 µM.
